Laboratory results published in patent publication US20200080091A1, “Methods for Treating Obesity of a Subject Suffering from Obesity” (NAKAJIMA Toshihiro, priority 2012, published 2020).

What was measured:
[1] = biological target: T1, synoviolin protein (Homo sapiens, UniProt Q86TM6); details: disclosed in Japanese Patent Application Publication No. 2008-74753; cited from earlier work
T1 construct: MBP-Syno ΔTM-His means synoviolin in which transmembrane domain has been deleted

[2] = system: 3T3-L1 cells; test: adipocyte differentiation induction of 3T3-L1 cells (Oil Red O staining); type: cell-based, mice; details: 200 μmol siRNA introduced by Lipofectamine2000 two days before induction of differentiation; compared to a control; FIG. 4
Method: 3T3-L1 cells, which are preadipocytes of mice, were cultivated in Dulbecco's Modified Eagle Medium (DMEM; High Glucose) containing 10% fetal bovine serum (FBS) for 3 days after reaching confluent state. 500 μM of isobutyl-methylxanthine (IBMX), 1 μM of Dexamethasone, and 5 μg/mL of Insulin were added to induce differentiation. At the same time, 10 μM of LS-102 (ubiquitination activity inhibitor of synoviolin) or DMSO was added. After cultivation for 3 days, the medium was replaced with medium containing 4 μg/mL of Insulin and 10 μM of LS-102 or DMSO was added. After cultivation for 3 days, the medium was replaced with DMEM (High Glucose) containing 10% FBS to cultivate for 3 days. For siRNA, 200 μmol of siRNA Syno770 (sense strand consists of the following SEQ ID NO: 2) was introduced by the Lipofectamine2000 two days before induction of differentiation.
After the cultivated 3T3-L1 cells were washed with PBS(−) (Phosphate Buffered Saline solution from which magnesium and calcium had been eliminated), the cells were fixed by 10% formalin. The cells were washed with the PBS(−) to be replaced with 60% isopropanol. After staining for 20 minutes with 18 mg/ml of Oil Red 0 (solvent Isopropanol), the cells were washed with 60% isopropanol and PBS(−) and observed by a microscope.

T1 sequence (Q86TM6 246-617 limits assumed): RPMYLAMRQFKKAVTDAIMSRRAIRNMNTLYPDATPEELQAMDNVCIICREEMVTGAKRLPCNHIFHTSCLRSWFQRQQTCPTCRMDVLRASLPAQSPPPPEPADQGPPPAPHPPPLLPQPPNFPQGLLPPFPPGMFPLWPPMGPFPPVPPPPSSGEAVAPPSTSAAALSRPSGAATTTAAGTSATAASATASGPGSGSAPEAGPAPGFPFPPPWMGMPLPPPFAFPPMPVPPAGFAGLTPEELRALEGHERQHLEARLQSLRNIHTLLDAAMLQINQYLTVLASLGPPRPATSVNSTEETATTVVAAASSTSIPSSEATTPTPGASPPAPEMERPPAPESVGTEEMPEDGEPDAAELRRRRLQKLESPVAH

O=c1c(O)c(-c2ccc(O)c(O)c2)oc2cc(O)cc(O)c12 [quercetin, 2-(3,4-dihydroxyphenyl)-3,5,7-trihydroxy-4H-1-benzopyrano-4-on]
self-ubiquitination of synoviolin protein [1]: inhibit

CC1=CC(=O)c2c(O)cccc2C1=O [plumbagin, 2-methyl-5-hydroxy-1,4-naphthoquinone]
self-ubiquitination of synoviolin protein [1]: inhibit

5′ -GCUGUGACAGAUGCCAUCA-3′ [siRNA Syno770]
differentiation of adipose cells [2]: differentiation has been suppressed
